Reference: patent US9067967B2, “Peptides useful in the treatment and care of the skin and mucous membranes and their use in cosmetic or pharmaceutical compositions” (LIPOTEC, S.A., priority 2011, dated 2015)

What was measured:
Format in all cases: cell-based
human AQP-3 promoter = assay: Modulation of the human AQP-3 promoter activity (luciferase reporter in stably transfected keratinocytes); details: peptide at 0.5 mg/mL, 16-24 hours; normalized to negative control (carrier = 100%)
Protocol: The modulation capacity of the promoter of the AQP-3 gene was evaluated in a cell line of keratinocytes stably transfected with the luciferase gene under the regulation of the human AQP-3 promoter. 20,000 to 30,000 cells per well were seeded and incubated for 24 hours in DMEM medium, after which the peptides of the invention were added at 0.5 mg/mL and were incubated for another 16-24 hours. The DMEM medium (carrier) was used as a negative control. The measurement of the promoter's activity was carried out using the Steady-Glo® Luciferase Assay System (PROMEGA) kit following the manufacturer's instructions. The luminescence values were read on a luminometer at 630 nm and the activity of the promoter was determined, which was normalized with regards to the values of the negative control.

AQP-3 gene = assay: Relative quantification of AQP-3 mRNA by quantitative real time PCR in human epidermal keratinocytes; details: 0.1 mg/mL, 16-24 hours; normalized to untreated cells (carrier = 100%)
Protocol: The expression levels of the gene AQP-3 were measured by PCR in quantitative real time. A human keratinocyte cell line from adult skin was incubated at a density of 10,000 to 20,000 cells per well in EpiLife™ medium (Cascade Biologics) for 3-5 days and they were subsequently incubated with the peptides of the invention for another 16-24 hours, after which the cells were lysed and the RNA was extracted. The PCR was carried out in quantitative real time using the Taqman® Gene Expression Cells-to-CT (Applied Biosystems) kit according to the manufacturer's instructions and with the appropriate probes (TaqMan® Hs00185020_m1 probe for the AQP-3 gene and Taqman® Hs99999901_s1 probe for the eukaryotic ribosomal subunit 18S, the endogenous control of expression) and the values were normalized with regards to the basal levels of AQP-3 mRNA of the untreated cells (carrier).

[1] = test system: human dermal fibroblasts (HDFa); assay: Stimulation of collagen type I synthesis in human dermal fibroblasts (ELISA); details: 48 hours, carrier = 0%
Protocol: The ability of the peptides of the invention to stimulate collagen type I synthesis in human dermal fibroblasts (HDFa, Cascade Biologics) was evaluated in culture using ELISA (enzyme-linked immunosorbent assay). The fibroblasts grew in M106 supplemented with specific factors for their growth. 50,000 cells per well were seeded and incubated at 37° C., 5% CO2, with humidified air. After 24 hours the peptides of the invention were added, and were incubated for another 48 hours, after which the supernatants were collected.
96-well plates were covered with 50 μL of a standard bovine collagen type I (Sigma) or with the previously collected supernatants. The collagen was absorbed onto the wells throughout the night at 4° C. in a humidified atmosphere. The plates were washed three times and were blocked for one hour with 3% bovine serum albumin, after which they were incubated with a primary anti-collagen type I anti-body (Sigma) for 2 hours. Subsequently, the secondary antibody, goat anti-mouse IgG-HRP (Molecular Probes) was added. The plates were incubated with the […] for 30 minutes under stirring and the reaction was stopped by adding 3 M of H2SO4. The absorbance was measured at 490 nm in a plate reader (Genios, Tecan) and the concentration of collagen was determined by comparing it with a standard linear regression line.

[2] = test system: human epidermal keratinocytes; assay: Proliferation of human epidermal keratinocytes (calcein-AM fluorescence); details: 24 hours, carrier = 0%
Protocol: Cell proliferation was evaluated by a fluorescence-based cell viability method, in which the live cells are distinguished from the dead cells by the enzymatic conversion of calcein-AM to its fluorescent form.
Human keratinocytes were cultivated in DMEM supplemented with fetal bovine serum (FBS, Cultek) until confluence is achieved. The cells were then separated using trypsin and were seeded in 96-well plates. After 24 hours of incubation in DMEM at 37° C. in a humidified atmosphere at 5% CO2 a fresh medium was added with different concentrations of the product of the invention. Cells treated with DMEM as a negative control were used. The cells were incubated for another 24 hours under the same conditions and the medium was substituted by 100 μl of calcein-AM (Molecular Probes) at 0.4 μM diluted in phosphate buffered saline (PBS, Sigma). After 30 minutes of incubation at 37° C. the fluorescence was measured at excitation 485 nm 1 and emission 530 nm (λem) in a plate reader (Genios Tecan). The total growth percentage was calculated as T/C×100 wherein T is the fluorescence of the wells treated with the peptides of the invention and C the fluorescence of the control wells treated with DMEM.

## Ac-L-Ser-L-Pro-L-Ala-Gly-Gly-L-Gln-NH2 (Ac-SPAGGQ-NH2) [Ac-SEQ ID 8-NH2]
Human AQP-3 promoter
  Activity of the AQP-3 promoter (%): 152%

## Ac-L-Ser-L-Pro-L-Ala-Gly-Gly-L-His-NH2 (Ac-SPAGGH-NH2) [Ac-SEQ ID 45-NH2]
Human AQP-3 promoter
  Activity of the AQP-3 promoter (%): 120%

## Ac-L-Ser-L-Pro-L-Ala-Gly-Gly-L-Pro-NH2 (Ac-SPAGGP-NH2) [Ac-SEQ ID 10-NH2]
Human AQP-3 promoter
  Activity of the AQP-3 promoter (%): 135%
AQP-3 gene
  % relative quantity AQP-3 mRNA: 200%
[1]; 0.01 mg/mL
  % Increase in collagen type I synthesis: 36%
[1]; 0.1 mg/mL
  % Increase in collagen type I synthesis: 58%
[2]; 0.16 mg/mL
  % Stimulation of proliferation: 24%
[2]; 0.62 mg/mL
  % Stimulation of proliferation: 28%
[2]; 2.50 mg/mL
  % Stimulation of proliferation: 31%

## Ac-L-Ser-L-Pro-L-Ala-L-Glu-Gly-Gly-NH2 (Ac-SPAEGG-NH2) [Ac-SEQ ID 6-NH2]
Human AQP-3 promoter
  Activity of the AQP-3 promoter (%): 124%

## Ac-L-Ser-L-Pro-L-Ala-L-Glu-Gly-L-Gln-NH2 (Ac-SPAEGQ-NH2) [Ac-SEQ ID 5-NH2]
Human AQP-3 promoter
  Activity of the AQP-3 promoter (%): 121%

## Ac-L-Ser-L-Pro-L-Ala-L-Glu-Gly-L-His-NH2 (Ac-SPAEGH-NH2) [Ac-SEQ ID 48-NH2]
Human AQP-3 promoter
  Activity of the AQP-3 promoter (%): 117%

## Ac-L-Ser-L-Pro-L-Ala-L-Val-Gly-Gly-NH2 (Ac-SPAVGG-NH2) [Ac-SEQ ID 40-NH2]
Human AQP-3 promoter
  Activity of the AQP-3 promoter (%): 126%

## Ac-L-Ser-L-Pro-L-Ala-L-Val-Gly-L-Gln-NH2 (Ac-SPAVGQ-NH2) [Ac-SEQ ID 39-NH2]
Human AQP-3 promoter
  Activity of the AQP-3 promoter (%): 133%

## Ac-L-Ser-L-Pro-L-Ala-L-Val-Gly-L-Pro-NH2 (Ac-SPAVGP-NH2) [Ac-SEQ ID 49-NH2]
Human AQP-3 promoter
  Activity of the AQP-3 promoter (%): 116%

## Ac-L-Ser-L-Val-L-Ala-Gly-Gly-Gly-NH2 (Ac-SVAGGG-NH2) [Ac-SEQ ID 38-NH2]
Human AQP-3 promoter
  Activity of the AQP-3 promoter (%): 156%

## Ac-L-Ser-L-Val-L-Ala-Gly-Gly-L-Gln-NH2 (Ac-SVAGGQ-NH2) [Ac-SEQ ID 50-NH2]
Human AQP-3 promoter
  Activity of the AQP-3 promoter (%): 115%

## Ac-L-Ser-L-Val-L-Ala-Gly-Gly-L-His-NH2 (Ac-SVAGGH-NH2) [Ac-SEQ ID 41-NH2]
Human AQP-3 promoter
  Activity of the AQP-3 promoter (%): 124%

## Ac-L-Ser-L-Val-L-Ala-Gly-Gly-L-Pro-NH2 (Ac-SVAGGP-NH2) [Ac-SEQ ID 13-NH2]
Human AQP-3 promoter
  Activity of the AQP-3 promoter (%): 144%

## Ac-L-Ser-L-Val-L-Ala-L-Glu-Gly-Gly-NH2 (Ac-SVAEGG-NH2) [Ac-SEQ ID 46-NH2]
Human AQP-3 promoter
  Activity of the AQP-3 promoter (%): 119%

## Ac-L-Ser-L-Val-L-Ala-L-Glu-Gly-L-Gln-NH2 (Ac-SVAEGQ-NH2) [Ac-SEQ ID 12-NH2]
Human AQP-3 promoter
  Activity of the AQP-3 promoter (%): 138%

## Ac-L-Ser-L-Val-L-Ala-L-Glu-Gly-L-His-NH2 (Ac-SVAEGH-NH2) [Ac-SEQ ID 58-NH2]
Human AQP-3 promoter
  Activity of the AQP-3 promoter (%): 112%

## Ac-L-Ser-L-Val-L-Ala-L-Val-Gly-Gly-NH2 (Ac-SVAVGG-NH2) [Ac-SEQ ID 16-NH2]
Human AQP-3 promoter
  Activity of the AQP-3 promoter (%): 127%

## Ac-L-Ser-L-Val-L-Ala-L-Val-Gly-L-Gln-NH2 (Ac-SVAVGQ-NH2) [Ac-SEQ ID 15-NH2]
Human AQP-3 promoter
  Activity of the AQP-3 promoter (%): 129%
AQP-3 gene
  % relative quantity AQP-3 mRNA: 162%

## Ac-L-Ser-L-Val-L-Ala-L-Val-Gly-L-Pro-NH2 (Ac-SVAVGP-NH2) [Ac-SEQ ID 17-NH2]
Human AQP-3 promoter
  Activity of the AQP-3 promoter (%): 121%

## Ac-L-Tyr-L-Pro-L-Ala-Gly-Gly-Gly-NH2 (Ac-YPAGGG-NH2) [Ac-SEQ ID 25-NH2]
Human AQP-3 promoter
  Activity of the AQP-3 promoter (%): 132%

## Ac-L-Tyr-L-Pro-L-Ala-Gly-Gly-L-Gln-NH2 (Ac-YPAGGQ-NH2) [Ac-SEQ ID 43-NH2]
Human AQP-3 promoter
  Activity of the AQP-3 promoter (%): 122%

## Ac-L-Tyr-L-Pro-L-Ala-Gly-Gly-L-Pro-NH2 (Ac-YPAGGP-NH2) [Ac-SEQ ID 26-NH2]
Human AQP-3 promoter
  Activity of the AQP-3 promoter (%): 114%

## Ac-L-Tyr-L-Pro-L-Ala-L-Glu-Gly-Gly-NH2 (Ac-YPAEGG-NH2) [Ac-SEQ ID 23-NH2]
Human AQP-3 promoter
  Activity of the AQP-3 promoter (%): 125%

## Ac-L-Tyr-L-Pro-L-Ala-L-Glu-Gly-L-Gln-NH2 (Ac-YPAEGQ-NH2) [Ac-SEQ ID 22-NH2]
Human AQP-3 promoter
  Activity of the AQP-3 promoter (%): 135%
AQP-3 gene
  % relative quantity AQP-3 mRNA: 229%

## Ac-L-Tyr-L-Pro-L-Ala-L-Glu-Gly-L-Pro-NH2 (Ac-YPAEGP-NH2) [Ac-SEQ ID 24-NH2]
Human AQP-3 promoter
  Activity of the AQP-3 promoter (%): 121%

## Ac-L-Tyr-L-Pro-L-Ala-L-Val-Gly-Gly-NH2 (Ac-YPAVGG-NH2) [Ac-SEQ ID 29-NH2]
Human AQP-3 promoter
  Activity of the AQP-3 promoter (%): 125%

## Ac-L-Tyr-L-Pro-L-Ala-L-Val-Gly-L-Gln-NH2 (Ac-YPAVGQ-NH2) [Ac-SEQ ID 28-NH2]
Human AQP-3 promoter
  Activity of the AQP-3 promoter (%): 129%

## Ac-L-Tyr-L-Pro-L-Ala-L-Val-Gly-L-His-NH2 (Ac-YPAVGH-NH2) [Ac-SEQ ID 30-NH2]
Human AQP-3 promoter
  Activity of the AQP-3 promoter (%): 121%

## Ac-L-Tyr-L-Pro-L-Ala-L-Val-Gly-L-Pro-NH2 (Ac-YPAVGP-NH2) [Ac-SEQ ID 31-NH2]
Human AQP-3 promoter
  Activity of the AQP-3 promoter (%): 122%

## Ac-L-Tyr-L-Val-L-Ala-Gly-Gly-Gly-NH2 (Ac-YVAGGG-NH2) [Ac-SEQ ID 33-NH2]
Human AQP-3 promoter
  Activity of the AQP-3 promoter (%): 129%

## Ac-L-Tyr-L-Val-L-Ala-Gly-Gly-L-Gln-NH2 (Ac-YVAGGQ-NH2) [Ac-SEQ ID 42-NH2]
Human AQP-3 promoter
  Activity of the AQP-3 promoter (%): 123%

## Ac-L-Tyr-L-Val-L-Ala-Gly-Gly-L-His-NH2 (Ac-YVAGGH-NH2) [Ac-SEQ ID 34-NH2]
Human AQP-3 promoter
  Activity of the AQP-3 promoter (%): 136%

## Ac-L-Tyr-L-Val-L-Ala-Gly-Gly-L-Pro-NH2 (Ac-YVAGGP-NH2) [Ac-SEQ ID 35-NH2]
Human AQP-3 promoter
  Activity of the AQP-3 promoter (%): 150%

## Ac-L-Tyr-L-Val-L-Ala-L-Glu-Gly-Gly-NH2 (Ac-YVAEGG-NH2) [Ac-SEQ ID 56-NH2]
Human AQP-3 promoter
  Activity of the AQP-3 promoter (%): 112%

## Ac-L-Tyr-L-Val-L-Ala-L-Glu-Gly-L-His-NH2 (Ac-YVAEGH-NH2) [Ac-SEQ ID 44-NH2]
Human AQP-3 promoter
  Activity of the AQP-3 promoter (%): 120%

## Ac-L-Tyr-L-Val-L-Ala-L-Glu-Gly-L-Pro-NH2 (Ac-YVAEGP-NH2) [Ac-SEQ ID 32-NH2]
Human AQP-3 promoter
  Activity of the AQP-3 promoter (%): 135%

## Ac-L-Tyr-L-Val-L-Ala-L-Val-Gly-Gly-NH2 (Ac-YVAVGG-NH2) [Ac-SEQ ID 36-NH2]
Human AQP-3 promoter
  Activity of the AQP-3 promoter (%): 120%
